According to publication PMC10522932, “A broad inhibitor of acyl-acyl carrier protein synthetases” (Biochemistry and Biophysics Reports, 2023):

Legend:
Test in all cases: urea-PAGE gel shift of acyl-ACP, densitometry
Format in all cases: biochemical
VhAasS [1] = molecular target: T1, VhAasS (Vibrio harveyi, UniProt Q00IB3); conditions: read-out: % inhibition at 1 mM
T1 construct: gene aasS; His6-tagged, E. coli BL21[DE3], Ni-NTA purified; soluble enzyme
T1 sequence (Q00IB3 1-533): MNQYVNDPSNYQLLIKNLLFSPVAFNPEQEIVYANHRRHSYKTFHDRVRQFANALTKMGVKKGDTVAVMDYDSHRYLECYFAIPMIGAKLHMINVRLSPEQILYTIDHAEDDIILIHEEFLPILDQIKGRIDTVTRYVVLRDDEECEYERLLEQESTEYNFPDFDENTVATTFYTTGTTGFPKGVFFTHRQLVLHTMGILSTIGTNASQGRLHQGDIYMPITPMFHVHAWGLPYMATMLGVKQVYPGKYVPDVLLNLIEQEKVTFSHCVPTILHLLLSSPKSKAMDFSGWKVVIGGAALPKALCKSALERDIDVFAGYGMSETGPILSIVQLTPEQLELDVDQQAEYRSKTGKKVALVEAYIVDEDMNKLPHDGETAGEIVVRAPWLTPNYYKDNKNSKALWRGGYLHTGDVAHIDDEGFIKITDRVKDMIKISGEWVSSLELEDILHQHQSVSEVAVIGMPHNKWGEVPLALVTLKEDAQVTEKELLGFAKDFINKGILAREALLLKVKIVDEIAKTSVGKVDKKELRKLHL

AasC [2] = molecular target: T2, AasC (Chlamydia trachomatis, UniProt O84781); conditions: read-out: % inhibition at 1 mM
T2 construct: gene aas; His6-tagged (pET16b or pET29a, synthetic gene), E. coli BL21[DE3], Ni-NTA purified
T2 sequence (O84781 1-537): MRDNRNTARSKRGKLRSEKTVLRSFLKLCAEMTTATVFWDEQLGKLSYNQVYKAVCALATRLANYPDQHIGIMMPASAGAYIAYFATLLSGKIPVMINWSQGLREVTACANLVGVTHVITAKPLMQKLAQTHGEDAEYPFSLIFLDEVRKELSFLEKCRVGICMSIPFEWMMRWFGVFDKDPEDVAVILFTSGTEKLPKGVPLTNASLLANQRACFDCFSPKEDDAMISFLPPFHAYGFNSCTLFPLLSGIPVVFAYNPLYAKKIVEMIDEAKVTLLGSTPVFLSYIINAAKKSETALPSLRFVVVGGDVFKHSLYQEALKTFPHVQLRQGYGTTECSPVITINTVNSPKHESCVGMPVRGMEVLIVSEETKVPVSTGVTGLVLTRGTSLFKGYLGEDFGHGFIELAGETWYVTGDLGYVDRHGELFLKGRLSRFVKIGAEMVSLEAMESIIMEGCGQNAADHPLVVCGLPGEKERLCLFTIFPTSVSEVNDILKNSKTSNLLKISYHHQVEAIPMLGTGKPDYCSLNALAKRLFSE

VhAasS [3] = molecular target: T1, VhAasS; conditions: holo-EcACP 30 uM, decanoic acid 1 mM, ATP 10 mM, MgCl2 12.5 mM, TCEP 2.5 mM, enzyme 2 uM, pH 7.5, 37 C, 24 h
AasC [4] = molecular target: T2, AasC; conditions: holo-EcACP 30 uM, decanoic acid 1 mM, ATP 10 mM, MgCl2 12.5 mM, TCEP 2.5 mM, enzyme 50 uM, pH 7.5, 37 C, 24 h

Row | SMILES | inhibition at 1000 µM (VhAasS [1]) [%] | inhibition at 1000 µM (AasC [2]) [%] | urea-PAGE gel shift of acyl-ACP, densitometry (VhAasS [3]) | urea-PAGE gel shift of acyl-ACP, densitometry (AasC [4])
1 | CCCCCCCCCC(=O)NS(=O)(=O)OC[C@H]1O[C@@H](n2cnc3c(N)ncnc32)[C@H](O)[C@@H]1O [C10-AMS] | 100 | 100 | – | –
2 | CCCCCCCCCC(=O)O [decanoic acid] | – | – | All AasS enzymes tested were able to load C10 onto EcACP | All AasS enzymes tested were able to load C10 onto EcACP
